Test results from patent EP4803080A1, “METHOD FOR TREATING LEUKEMIA” (Shenzhen TargetRx Co., Ltd., priority 2023, dated 2025).

Test system: accelerated phase (AP) chronic myeloid leukemia (CML)
Test: Phase I dose escalation and dose expansion clinical trial: efficacy in CML-AP subjects
Format: in vivo, humans
Text: This study is a single-arm, open-label, dose-escalation and dose-expansion Phase I clinical trial.
The dose-escalation phase of this trial consists of about 8 dose groups, with oral administration under fasting conditions. Subjects in all dose groups will receive a single dose on Day 1 (D1), followed by pharmacokinetic (PK) and tolerability observations. […] After entering the multiple-dose period, subjects in the first dose group will initially receive twice-daily (BID) dosing (if PK data from the single-dose period are available, the dosing frequency during the multiple-dose period may be adjusted based on the PK data). The dosing frequency for subjects in subsequent dose groups after entering the multiple-dose period will be determined based on available PK and tolerability data. Throughout the trial, dosing frequency for all subjects may be adjusted based on continuously updated safety and PK data.
A continuous reassessment method (CRM) based on the principle of the escalation with overdose control (EWOC) design will be used to recommend the next specific dose for each dose escalation, thereby completing dose escalation and determining the maximum tolerated dose (MTD). If both the investigator and sponsor believe that higher dose groups may offer better efficacy and manageable safety, the EWOC-based CRM method may be used to explore higher doses. All enrolled subjects will receive long-term treatment with the test drug and undergo evaluations for safety, tolerability, and preliminary efficacy.
After obtaining certain research data from the dose-escalation phase, the investigator may comprehensively consider safety, efficacy, and other information to decide whether to enroll additional subjects at the MTD and/or lower dose levels to determine the recommended Phase II dose (RP2D). Two to four suitable dosing regimens will be selected for expansion in the target population (including subjects enrolled at the target dose levels during the escalation phase).
A total of 8 dose groups were established: 10 mg bid, 20 mg bid, 40 mg bid, 80 mg bid, 40 mg qd, 80 mg qd, 160 mg qd, and 240 mg qd.
The dose expansion phase was conducted in the following 3 cohorts: • Cohort 1: Subjects with chronic phase (CP) chronic myeloid leukemia (CML) who had previously received at least ≥2 different TKIs and were T315I-negative. A total of 3 dose groups were established: 40 mg qd, 80 mg qd, and 240 mg qd; • Cohort 2: Subjects with chronic phase (CP) chronic myeloid leukemia (CML) who have previously received ≥1 TKI and were T315I-positive. A total of 2 dose groups were established: 40 mg qd and 240 mg qd; • Cohort 3: Subjects with accelerated phase (AP) chronic myeloid leukemia (CML) who have previously received ≥1 TKI, regardless of T315I positivity. A total of 1 dose group was established: 240 mg qd.

[1] = CML-AP subjects previously treated with ponatinib, olverembatinib, asciminib, and/or HS-10382, as of June 2, 2024
[2] = CML-AP subjects, all doses, 44 evaluable, as of August 24, 2023
[3] = CML-AP subjects, 42 evaluable, as of June 2, 2024
[4] = CML-AP subjects, as of August 24, 2023
[5] = CML-AP subjects, as of June 2, 2024
[6] = CML-AP, failed or intolerant to third or above generations of TKI therapy
[7] = CML-AP, failed or intolerant to third or above generations of TKI therapy, 28 evaluable
[8] = CML-AP, failed or intolerant to third or above generations of TKI therapy, Kaplan-Meier method
[9] = CML-AP, 10 mg BID, 1 evaluable subject, as of August 24, 2023
[10] = CML-AP, 20 mg BID, 3 evaluable subjects, as of August 24, 2023
[11] = CML-AP, 40 mg BID, 4 evaluable subjects, as of August 24, 2023
[12] = CML-AP, 40 mg QD, 2 evaluable subjects, as of August 24, 2023
[13] = CML-AP, 40 mg/day Total, 5 evaluable subjects, as of August 24, 2023
[14] = CML-AP, 80 mg BID, 0 evaluable subjects, as of August 24, 2023
[15] = CML-AP, 80 mg QD, 4 evaluable subjects, as of August 24, 2023
[16] = CML-AP, 80 mg/day Total, 8 evaluable subjects, as of August 24, 2023
[17] = CML-AP, 160 mg QD, 3 evaluable subjects, as of August 24, 2023
[18] = CML-AP, 160 mg/day Total, 3 evaluable subjects, as of August 24, 2023
[19] = CML-AP, 240 mg QD, 27 evaluable subjects, as of August 24, 2023
[20] = CML-AP, Total, all dose groups, 44 evaluable subjects, as of August 24, 2023

## O=C(Nc1ccc(OC(F)(F)Cl)cc1)c1cnc(N2CC[C@@H](F)C2)c(-c2cnccn2)c1 [Compound A, (R)-N-(4-(chlorodifluoromethoxy)phenyl)-6-(3-fluoropyrrolidin-1-yl)-5-(pyrazin-2-yl)nicotinamide]
[1]
  18-month cumulative incidence rate of CCyR: 17%
  18-month cumulative incidence rate of MCyR: 23%
[2]
  CCyR: 18.2%
  MCyR: 34.1%
  MMR: 4.5%
CML-AP subjects, all doses, 46 evaluable, as of August 24, 2023
  MaHR: 84.8%
[3]
  CHR within 3 treatment cycles: 79%
  MaHR within 3 treatment cycles: 83%
[4]
  median time to MCyR: 2.76 (0.95, 5.52) months
  median time to MMR: 5.54 (2.79, 8.28) months
[5]
  18-month cumulative incidence of CCyR: 30%
  18-month cumulative incidence of MCyR: 35%
  18-month cumulative incidence of MMR: 14%
[6]
  median EFS: 8.41 months
  median PFS: not reached
  median duration of MaHR response: not reached
  median time to achieve CCyR: 5.59 (4.16, 6.92) months
  median time to achieve MCyR: 2.69 (2.69, 5.55) months
[7]
  CCyR: 14.3%
  MCyR: 25.0%
  MMR: 3.6%
  MaHR: 78.6%
[8]
  12-month EFS rate: 42.5%
  12-month PFS rate: 79.9%
[9]
  CCyR: 0 n (%)
  MCyR: 0 n (%)
  MMR: 0 n (%)
  MaHR: 1 (100) n (%)
[10]
  CCyR: 1 (33.3) n (%)
  MCyR: 1 (33.3) n (%)
  MMR: 0 n (%)
  MaHR: 3 (100) n (%)
[11]
  CCyR: 0 n (%)
  MCyR: 1 (25.0) n (%)
  MMR: 0 n (%)
  MaHR: 3 (75.0) n (%)
[12]
  CCyR: 0 n (%)
  MCyR: 1 (50.0) n (%)
  MMR: 0 n (%)
  MaHR: 1 (50.0) n (%)
[13]
  CCyR: 1 (20.0) n (%)
  MCyR: 2 (40.0) n (%)
  MMR: 0 n (%)
  MaHR: 4 (80.0) n (%)
[14]
  CCyR: 0 n (%)
  MCyR: 0 n (%)
  MMR: 0 n (%)
  MaHR: 0 n (%)
[15]
  CCyR: 0 n (%)
  MCyR: 0 n (%)
  MMR: 0 n (%)
  MaHR: 3 (75.0) n (%)
[16]
  CCyR: 0 n (%)
  MCyR: 1 (12.5) n (%)
  MMR: 0 n (%)
  MaHR: 6 (75.0) n (%)
[17]
  CCyR: 0 n (%)
  MCyR: 1 (33.3) n (%)
  MMR: 0 n (%)
  MaHR: 3 (100) n (%)
[18]
  CCyR: 0 n (%)
  MCyR: 1 (33.3) n (%)
  MMR: 0 n (%)
  MaHR: 3 (100) n (%)
[19]
  CCyR: 7 (25.9) n (%)
  MCyR: 11 (40.7) n (%)
  MMR: 2 (7.4) n (%)
CML-AP, 240 mg QD, 29 evaluable subjects, as of August 24, 2023
  MaHR: 25 (86.2) n (%)
[20]
  CCyR: 8 (18.2) n (%)
  MCyR: 15 (34.1) n (%)
  MMR: 2 (4.5) n (%)
CML-AP, Total, all dose groups, 46 evaluable subjects, as of August 24, 2023
  MaHR: 39 (84.8) n (%)
